Experiment: Calculated time for complete dissolution of Ptx transferred to the vessel
Format: physicochemical
Settings: ~23 μg Ptx transferred to vessel divided by dissolution rate
Text: The ability to control the Ptx morphology on a drug coated balloon is important in achieving proper dosing. This is illustrated by the following example. […] Other factors such as particle size will also influence dissolution.

Row | Compound | Time for complete dissolution | Time for complete dissolution of the Ptx
1 | CC(=O)O[C@H]1C(=O)[C@@]2(C)[C@H]([C@H](OC(=O)c3ccccc3)[C@]3(O)C[C@H](OC(=O)[C@H](O)[C@@H](NC(=O)c4ccccc4)c4ccccc4)C(C)=C1C3(C)C)[C@]1(OC(C)=O)CO[C@@H]1C[C@@H]2O [PTx 2H2O Crystalline, paclitaxel] | about 10 days | 
2 | CC(=O)O[C@H]1C(=O)[C@@]2(C)[C@H]([C@H](OC(=O)c3ccccc3)[C@]3(O)C[C@H](OC(=O)[C@H](O)[C@@H](NC(=O)c4ccccc4)c4ccccc4)C(C)=C1C3(C)C)[C@]1(OC(C)=O)CO[C@@H]1C[C@@H]2O [PTx Anhydrous Crystal, paclitaxel] |  | about 1 day

Reference: patent US20100272773A1, “Use of Drug Polymorphs to Achieve Controlled Drug Delivery From a Coated Medical Device” (BOSTON SCIENTIFIC SCIMED, INC., priority 2009, published 2010)
